US8501446B2 (Vertex Pharmaceuticals Incorporated, priority 2004, dated 2013)

How the values were obtained:
[1] = target: T1, full length Aurora-A (AA 1-403) (Homo sapiens, UniProt O14965); experiment: Aurora-A inhibition assay, standard coupled enzyme system; assay type: biochemical; details: average Ki if more than one value determined
T1 construct: full length Aurora-A (AA 1-403)
T1 sequence (O14965 1-403): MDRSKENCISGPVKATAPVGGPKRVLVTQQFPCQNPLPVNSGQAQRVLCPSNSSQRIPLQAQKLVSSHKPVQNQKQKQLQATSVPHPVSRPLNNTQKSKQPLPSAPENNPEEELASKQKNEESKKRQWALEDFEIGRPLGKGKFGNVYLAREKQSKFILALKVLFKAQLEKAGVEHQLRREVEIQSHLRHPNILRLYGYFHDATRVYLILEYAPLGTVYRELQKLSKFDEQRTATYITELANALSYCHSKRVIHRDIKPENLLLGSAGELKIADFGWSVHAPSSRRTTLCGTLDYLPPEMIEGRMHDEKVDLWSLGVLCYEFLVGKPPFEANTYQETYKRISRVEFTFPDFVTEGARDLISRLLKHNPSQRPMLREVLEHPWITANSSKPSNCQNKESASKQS
Experimental: Compounds were screened for their ability to inhibit full length Aurora-A (AA 1-403) activity using a standard coupled enzyme system (Fox et al., Protein Sci. 7, pp. 2249 (1998)). Reactions were carried out in a solution containing 100 mM HEPES (pH 7.5), 10 mM MgCl2, 25 mM NaCl, 300 μM NADH, 1 mM DTT and 3% DMSO. Final substrate concentrations in the assay were 200 μM ATP (Sigma Chemicals, St Louis, Mo.) and 800 μM peptide (LRRASLG, American Peptide, Sunnyvale, Calif.). Reactions were carried out at 30° C. and 35 nM Aurora-A. Final concentrations of the components of the coupled enzyme system were 2.5 mM phosphoenolpyruvate, 200 μM NADH, 60 μg/ml pyruvate kinase and 20 μg/ml lactate dehydrogenase.
An assay stock buffer solution was prepared containing all of the reagents listed above with the exception of ATP and the test compound of interest. The assay stock buffer solution (60 μl) was incubated in a 96 well plate with 2 μl of the test compound of interest at final concentrations spanning 0.002 μM to 30 μM at 30° C. for 10 min. Typically, a 12 point titration was conducted by preparing serial dilutions (from 1 mM compound stocks) with DMSO of the test compounds in daughter plates. The reaction was initiated by the addition of 5 μl of ATP (final concentration 200 μM). Rates of reaction were obtained using a Molecular Devices Spectramax plate reader (Sunnyvale, Calif.) over 10 min at 30° C. The Ki values were determined from the rate data as a function of inhibitor concentration using computerized nonlinear regression (Prism 3.0, Graphpad Software, San Diego, Calif.). Aurora-C activity was screened in a similar manner using Aurora-C protein. Aurora-B activity was screened using a radioactive assay, such as described in Examples 1 and 2, but using Aurora-B protein.

[2] = target: T2, ROCK I (AA 6-553) (Homo sapiens, UniProt Q13464); experiment: ROCK inhibition assay, standard coupled enzyme system ("Enzyme"); assay type: biochemical; details: enzyme-linked assay
T2 construct: ROCK I (AA 6-553)
Experimental: Compounds were screened for their ability to inhibit ROCK I (AA 6-553) activity using a standard coupled enzyme system (Fox et al. (1998) Protein Sci. 7, 2249). Reactions were carried out in a solution containing 100 mM HEPES (pH 7.5), 10 mM MgCl2, 25 mM NaCl, 2 mM DTT and 1.5% DMSO. Final substrate concentrations in the assay were 45 μM ATP (Sigma Chemicals, St Louis, Mo.) and 200 μM peptide (American Peptide, Sunnyvale, Calif.). Reactions were carried out at 30° C. and 45 nM ROCK L. Final concentrations of the components of the coupled enzyme system were 2.5 mM phosphoenolpyruvate, 350 μM NADH, 30 μg/ml pyruvate kinase and 10 μg/ml lactate dehydrogenase.

T2 sequence (Q13464 6-553, species assumed): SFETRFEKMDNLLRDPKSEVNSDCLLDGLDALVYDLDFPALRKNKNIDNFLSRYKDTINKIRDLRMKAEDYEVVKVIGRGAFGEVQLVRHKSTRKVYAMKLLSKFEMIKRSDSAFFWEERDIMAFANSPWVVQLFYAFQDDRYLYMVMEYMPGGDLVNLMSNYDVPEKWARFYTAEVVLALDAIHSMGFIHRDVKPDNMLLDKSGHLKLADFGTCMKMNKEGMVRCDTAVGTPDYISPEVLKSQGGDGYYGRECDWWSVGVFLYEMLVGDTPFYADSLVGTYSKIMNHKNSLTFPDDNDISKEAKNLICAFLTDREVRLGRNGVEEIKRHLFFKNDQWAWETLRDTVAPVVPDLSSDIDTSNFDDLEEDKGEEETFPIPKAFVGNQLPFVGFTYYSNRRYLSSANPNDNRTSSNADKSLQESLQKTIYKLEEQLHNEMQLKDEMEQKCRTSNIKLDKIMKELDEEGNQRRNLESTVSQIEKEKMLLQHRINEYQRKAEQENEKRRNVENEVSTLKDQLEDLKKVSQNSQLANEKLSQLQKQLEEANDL

| Ki [1] [nM] | Ki [2] [nM] | Structure (SMILES) |
| --- | --- | --- |
| < 500 | 500 to 5000 | C[C@H](Nc1nc(-c2c[nH]c3ncc(Br)cc23)ncc1F)c1ccc(F)cc1 [Compound 357] |
| 500 to 5000 | 500 to 5000 | Clc1ccc(CNc2cccc(-c3c[nH]c4ncc(Cl)cc34)n2)c(Cl)c1 [Compound 244] |
| < 500 | 500 to 5000 | O=C(Nc1cccc(-c2c[nH]c3ncc(Cl)cc23)n1)c1cccnc1 [Compound 296] |
| < 500 | 500 to 5000 | C[C@@H](CC(=O)O)Nc1nc(-c2c[nH]c3ncc(Cl)cc23)ncc1F [Compound 401] |
| < 500 | < 500 | CNc1cccc(-c2c[nH]c3ncc(-c4ccccc4)cc23)n1 [Compound 278] |
| < 500 | 500 to 5000 | CCOc1cnc(-c2c[nH]c3ncc(Cl)cc23)nc1N[C@@H](C)C(=O)NCC(F)(F)F [Compound 408] |
| < 500 | < 500 | Fc1cnc(-c2c[nH]c3ncc(Cl)cc23)nc1NC[C@H]1CCNC1 [Compound 379] |
| < 500 | 500 to 5000 | C[C@H](Nc1nc(-c2c[nH]c3ncc(Cl)cc23)ncc1F)c1cccc(OCCCN(C)C)c1 [Compound 377] |
| < 500 | 500 to 5000 | C[C@H](Nc1nc(-c2c[nH]c3ncc(Cl)cc23)ncc1F)c1ccccc1 [Compound 286] |
| < 500 | 500 to 5000 | C[C@H](Nc1nc(-c2c[nH]c3ncc(C#N)cc23)ncc1F)c1ccc(F)cc1 [Compound 394] |
| 500 to 5000 | 500 to 5000 | CNC(=O)C[C@H](C)Nc1nc(-c2c[nH]c3ncc(Cl)cc23)ncc1F [Compound 402] |
| < 500 | 500 to 5000 | Clc1cnc2[nH]cc(-c3cccc(NC4CCCC4)n3)c2c1 [Compound 289] |
| < 500 | < 500 | CS(=O)(=O)Nc1ccc(-c2cnc3[nH]cc(-c4ccc(C(N)=O)cc4)c3c2)cc1 [Compound 255] |
| < 500 | 500 to 5000 | O=C(Nc1cccc(-c2c[nH]c3ncc(Cl)cc23)n1)c1ccccc1 [Compound 249] |
| < 500 | 500 to 5000 | CC(Nc1nc(-c2c[nH]c3ncc(Cl)cc23)ncc1F)c1ccc(Cl)cc1 (stereo not shown) [Compound 311] |
| < 500 | < 500 | Fc1cnc(-c2c[nH]c3ncc(Cl)cc23)nc1N[C@@H]1CCNC1 [Compound 381] |
| 500 to 5000 | 500 to 5000 | c1ccc(-c2cnc3[nH]cc(-c4cccc(N5CCCC5)n4)c3c2)cc1 [Compound 293] |
| 500 to 5000 | 500 to 5000 | CC(C)(C)OC(=O)N1CCN(c2cccc(-c3c[nH]c4ncc(Cl)cc34)n2)CC1 [Compound 257] |
| < 500 | 500 to 5000 | CS(=O)(=O)c1ccc(CNc2cccc(-c3c[nH]c4ncc(Cl)cc34)n2)cc1 [Compound 247] |
| 500 to 5000 | 500 to 5000 | Fc1cnc(-c2c[nH]c3ncc(Cl)cc23)nc1SCc1ccc(Cl)cc1 [Compound 308] |
| 500 to 5000 | 500 to 5000 | CN1CCN(c2cccc(-c3c[nH]c4ncc(Cl)cc34)n2)CC1 [Compound 275] |
| < 500 | 500 to 5000 | CC(C)CNC(=O)[C@H](C)Nc1nc(-c2c[nH]c3ncc(Cl)cc23)ncc1F [Compound 364] |
| < 500 | 500 to 5000 | c1ccc(Nc2cccc(-c3c[nH]c4ncc(-c5ccccc5)cc34)n2)cc1 [Compound 265] |
| < 500 | < 500 | N#Cc1cc(-c2c[nH]c3ncc(Cl)cc23)nc(N2CCNCC2)c1 [Compound 399] |
| < 500 | 500 to 5000 | Clc1ccccc1Nc1cccc(-c2c[nH]c3ncc(-c4ccccc4)cc23)n1 [Compound 266] |
| < 500 | 500 to 5000 | Cc1ccc(CNc2cccc(-c3c[nH]c4ncc(Cl)cc34)n2)cc1 [Compound 254] |
| < 500 | 500 to 5000 | Fc1cnc(-c2c[nH]c3ncc(Cl)cc23)nc1NCC1CCOCC1 [Compound 366] |

| Ki [1] [nM] | Ki [2] [nM] | Structure (SMILES) |
| --- | --- | --- |
| < 500 | 500 to 5000 | Fc1cnc(-c2c[nH]c3ncc(Cl)cc23)nc1NCc1ccncc1 [Compound 318] |
| < 500 | < 500 | OCCNc1cccc(-c2c[nH]c3ncc(-c4ccccc4)cc23)n1 [Compound 277] |
| < 500 | 500 to 5000 | CNC(=O)COc1cccc([C@H](C)Nc2nc(-c3c[nH]c4ncc(Cl)cc34)ncc2F)c1 [Compound 376] |
| < 500 | < 500 | CNS(=O)(=O)c1ccc(-c2cnc3[nH]cc(-c4ccc(C(N)=O)cc4)c3c2)cc1 [Compound 256] |
| < 500 | 500 to 5000 | Clc1cnc2[nH]cc(-c3cccc(Nc4ccccc4)n3)c2c1 [Compound 243] |
| < 500 | 500 to 5000 | C[C@H](Nc1nc(-c2c[nH]c3ncc(Cl)cc23)ncc1F)C(=O)NCCF [Compound 365] |
| < 500 | 500 to 5000 | COCCNC(=O)[C@H](C)Nc1nc(-c2c[nH]c3ncc(Cl)cc23)ncc1F [Compound 392] |
| < 500 | 500 to 5000 | C[C@H](Nc1nc(-c2c[nH]c3ncc(Cl)cc23)ncc1F)C(=O)NCCS(C)(=O)=O [Compound 389] |
| < 500 | < 500 | Clc1cnc2[nH]cc(-c3cccc(N4CCNCC4)n3)c2c1 [Compound 267] |
| < 500 | 500 to 5000 | NC(=O)c1ccc(Nc2nc(-c3c[nH]c4ncc(Cl)cc34)ncc2F)cc1 [Compound 295] |
| < 500 | 500 to 5000 | C[C@H](Nc1nc(-c2c[nH]c3ncc(C#CCO)cc23)ncc1F)c1ccc(F)cc1 [Compound 378] |
| < 500 | 500 to 5000 | CNC(=O)[C@H](CC(C)C)Nc1nc(-c2c[nH]c3ncc(Cl)cc23)ncc1F [Compound 393] |
| < 500 | 500 to 5000 | Clc1cccc(Nc2cccc(-c3c[nH]c4ncc(Cl)cc34)n2)c1 [Compound 273] |
| < 500 | < 500 | COC(=O)c1cnc2[nH]cc(-c3ncc(F)c(N[C@@H](C)c4ccc(F)cc4)n3)c2c1 [Compound 307] |
| 500 to 5000 | 500 to 5000 | Fc1ccc(-c2cnc3[nH]cc(-c4ccc(F)cc4)c3c2)cc1 [Compound 223] |
| < 500 | 500 to 5000 | COC(=O)c1cc(F)c(-c2c[nH]c3ncc(Cl)cc23)nc1N[C@@H](C)c1ccc(F)cc1 [Compound 398] |
| 500 to 5000 | 500 to 5000 | CC(=O)NCc1ccc(-c2c[nH]c3ncc(-c4ccccc4)cc23)cc1 [Compound 230] |
| < 500 | 500 to 5000 | Clc1cnc2[nH]cc(-c3cccc(NCc4ccc(Cl)c(Cl)c4)n3)c2c1 [Compound 251] |
| < 500 | < 500 | O=Cc1cc(-c2c[nH]c3ncc(Cl)cc23)nc(N2CCNCC2)c1 [Compound 409] |
| < 500 | 500 to 5000 | O=Cc1ccc(-c2c[nH]c3ncc(-c4ccccc4)cc23)cc1 [Compound 229] |
| < 500 | 500 to 5000 | CN(Cc1ccccc1)c1cccc(-c2c[nH]c3ncc(Cl)cc23)n1 [Compound 274] |
| < 500 | 500 to 5000 | COc1ccc(CNc2cccc(-c3c[nH]c4ncc(Cl)cc34)n2)cc1 [Compound 258] |
| < 500 | < 500 | COc1ccc(-c2c[nH]c3ncc(-c4ccc(F)cc4)cc23)cc1 [Compound 224] |
| < 500 | < 500 | CS(=O)(=O)c1cccc(-c2c[nH]c3ncc(-c4ccc(F)cc4)cc23)c1 [Compound 221] |
| 500 to 5000 | 500 to 5000 | CNC(=O)c1cnc2[nH]cc(-c3ncc(F)c(N[C@@H](C)c4ccc(F)cc4)n3)c2c1 [Compound 309] |
| < 500 | 500 to 5000 | Nc1ccc(-c2c[nH]c3ncc(-c4ccccc4)cc23)cc1 [Compound 232] |
